From patent US20240285661A1, “Inhibitor of Invasion of Virus to Cell” (TOYO SUGAR REFINING CO., LTD., priority 2021, published 2024) come the findings set out here.

Molecules are shown by their SMILES.

Test [1] deals with pseudo SARS-CoV-2. Kind of test: microbe, parasite or virus in culture. Format: cell-based. Particulars: Severe acute respiratory syndrome coronavirus 2, Caco-2 cells, read-out: Inhibition rate of invasion to cell (%).
The test system of test [2] is pseudo SARS-CoV-2. Kind of test: microbe, parasite or virus in culture. Format: cell-based. The note with it: Severe acute respiratory syndrome coronavirus 2, A549, concentration 20 nM, read-out: Inhibition rate of invasion to cell (%).

With `N=C(N)c1ccc2cc(OC(=O)c3ccc(N=C(N)N)cc3)ccc2c1` [Nafamostat], the inhibition at 0.00016 µM in test [1] (concentration 0.16 nM) amounted to 40.4%. In test [1] (concentration 0.80 nM), the inhibition at 0.0008 µM was 48.9%. The inhibition at 0.1 µM in test [1] (concentration 100 nM) stood at 76.1%. Also, the inhibition at 0.02 µM in test [2] was determined as 49%.

By inhibition is commonly meant the change of the read-out against control, counted positive when it falls.
